Columns and labels:
[1] = rabbits; due to high thiols in the blood; cited from earlier work
physchem = conditions: soybean oil, oil or lipid
[2] = Aqueous stability in buffer at 25 degrees Celsius; assay type: physicochemical; conditions: for aqueous degradation kinetics: buffered aqueous solution, Ionic Strength 0.15M; for half-life: 35 mM Acetate Buffer, Ionic Strength 0.15M (NaCl)
Method: (§1) 1HNMR (300 MHz, DMSO-d6): □ 3.05 (d of d, 1H), 3.25 (d of d, 1H), 3.80 (broad), 4.15 (broad, 1H), 7.45 (t, 2H), 7.55 (t, 1H), 7.80 (d, 2H), 8.40 (broad), 9.60 (s, 1H). FAB+ 241.0 (M+1). […] When a 10 times molar excess of cysteine was added to the above solution, the model prodrug degraded (reverted to yield benzamide) with a half life of ˜20 to 30 minutes. In addition, the above benzamide-cysteine model prodrug had improved aqueous solubility compared to benzamide.
(§2) 1HNMR (300 MHz, CDCl3): □ 1.15 (t, 3H), 3.10 (d of d, 11H), 3.70 (d of d, 11H), 3.95 (m, 2H), 4.70 (m, 1H), 5.05 (d of d, 2H), 6.25 (d, 1H), 7.35 (broad s, 5H), 7.75 (m, 2H), 7.90 (m, 2H). […] When a 10 times molar excess of cysteine was added to the above solution, the model prodrug degraded (reverted to yield phthalimide) instantaneously (kinetics were not measurable).
(§3) ^1HNMR (300 MHz, DMSO-d6): □ 1.15 (t, 3H), 2.85 (d of d, 1H), 3.05 (d of d, 1H), 4.05 (m, 1H), 4.15 (q, 2H), 6.95 (s, 2H), 7.10 (s, 1H), 7.35 (m, 2H), 7.40 (broad s, 6H), 8.40 (broad). FAB+ 384.1 (M+1).

[3] = Reversion of prodrug to parent on addition of 10 times molar excess of cysteine; assay type: physicochemical
Method: as §1, §2

[4] = Aqueous solubility compared to parent compound; assay type: physicochemical
Method: as §1, §3

[5] = within a pH range of 4.0 to 7.0, 25 degrees Celsius, projected by Eyring Plot

Structure (SMILES) | solubility (physchem) [mg/mL] | aqueous degradation kinetics [2] | pH of maximum stability [2, 5] | aqueous solubility compared to parent compound [4] | other results
O=C1C2CC=CCC2C(=O)N1SC(Cl)(Cl)Cl (stereo not shown) [Captan, N-trichloromethylthio-4-cyclohexane 1,2-dicarboximide] |  |  |  |  | fate of active form in the body [1]: broken down in the body
CCOC(=O)CCSN(CC1CN(c2ccc(N3CCOCC3)c(F)c2)C(=O)O1)C(C)=O (stereo not shown) [Example 10] | > 30 |  |  |  | 
CC(=O)N(CC1CN(c2ccc(N3CCOCC3)c(F)c2)C(=O)O1)Sc1ccccc1 (stereo not shown) [Example 11] | > 10 |  |  |  | melting point: 120.9 °C
NC(CSNC(=O)c1ccccc1)C(=O)O (stereo not shown) [Example 13] |  | Pseudo-first order degradation kinetics were observed | 6.0 | improved | half-life ([3]; phosphate buffer with 10 times molar excess of cysteine, 10 times molar excess of cysteine added to the phosphate buffer solution): 0.333 to 0.5 h
CCOC(=O)C(CSN1C(=O)c2ccccc2C1=O)NC(=O)OCc1ccccc1 (stereo not shown) [Example 15] |  | did not show pseudo-first order kinetics |  |  | half-life ([2]; pH 3.5, 25 degrees Celsius): 8 to 9 days; pH of maximum stability ([2]; within a pH range of 3.5 to 5.0, 25 degrees Celsius): 3.5; degradation (reversion to parent) with cysteine ([3]; 10 times molar excess of cysteine added to the acetate buffer solution, kinetics not measurable): instantaneously
CCOC(=O)C(N)CSNC(=O)N1c2ccccc2C=Cc2ccccc21 (stereo not shown) [Example 16] |  | Pseudo-first order degradation kinetics were observed | 4.0 | greatly improved | half-life ([2]; pH 4.0, 25 degrees Celsius, projected by Eyring Plot): ~181 days
